From publication PMC6893700 (Viruses, 2019)
Where two headings read alike, the source gives them in different places.

How the values were obtained:
[1] = test system: ZIKV strain FLR; experiment: Plaque reduction inhibition assay, ZIKV FLR in Vero E6 cells; type: cell-based; conditions: Zika virus, Vero C1008; plaque reduction, Vero E6 cells; read-out: IC50 FLR
[2] = biological target: T1, ZIKV envelope protein domain III (EDIII) protein (Zika virus, UniProt A0A024B7W1); type: binding
T1 construct: E residues 298–409 fused with a C-terminal human Fc; made in house

[3] = test system: ZIKV strain PAN2016; experiment: Plaque reduction inhibition assay, ZIKV PAN2016 in Vero E6 cells; type: cell-based; conditions: Zika virus, Vero C1008, Vero E6 cells; for IC50: plaque reduction, read-out: IC50 PAN2016; for IC90: 90% plaque reduction, read-out: IC90 against ZIKV PAN2016 strain
[4] = test system: ZIKV strain IbH 30656; experiment: Plaque reduction inhibition assay, ZIKV IbH 30656 in Vero E6 cells; type: cell-based; conditions: Zika virus, Vero C1008; plaque reduction, Vero E6 cells; read-out: IC50 IbH 30656
[5] = test system: ZIKV strain PRVABC59; type: cell-based, Zika virus (ZIKV); conditions: for IC50: Zika virus, Vero C1008, ZIKV PRVABC59, Vero E6, natural product without combination, read-out: IC50 Alone; for Fold of Enhancement (natural product with gossypol) / CI (combination index) of gossypol with the named natural product: ZIKV PRVABC59; for Fold of Enhancement (natural product with gossypol): (IC50 alone)/(IC50 in the mixture)—1; for CI (combination index) of gossypol with the named natural product: CI < 1 synergy
[6] = test system: ZIKV strain R116265; experiment: Plaque reduction inhibition assay, ZIKV R116265 in Vero E6 cells; type: cell-based; conditions: Zika virus, Vero C1008
[7] = test system: ZIKV strain FLR; type: cell-based, Zika virus (ZIKV); conditions: ZIKV FLR; for IC50: Zika virus, Vero C1008, Vero E6, natural product without combination, read-out: IC50 Alone; for Fold of Enhancement (natural product with gossypol): (IC50 alone)/(IC50 in the mixture)—1; for CI (combination index) of gossypol with the named natural product: CI < 1 synergy
[8] = test system: ZIKV strain PLCal_ZV; experiment: Plaque reduction inhibition assay, ZIKV PLCal_ZV in Vero E6 cells; type: cell-based; conditions: Zika virus, Vero C1008; plaque reduction, Vero E6 cells; read-out: IC50 PLCal_ZV
[9] = test system: ZIKV mosquito strain MEX 2–81; experiment: Plaque reduction inhibition assay, ZIKV MEX 2–81 in Vero E6 cells; type: cell-based; conditions: Zika virus, Vero C1008; plaque reduction, Vero E6 cells; read-out: IC50 MEX 2–81
[10] = test system: ZIKV strain PAN2016; type: cell-based, Zika virus (ZIKV); conditions: for IC50: Zika virus, Vero C1008, ZIKV PAN2016, Vero E6, natural product without combination, read-out: IC50 Alone; for Fold of Enhancement (natural product with gossypol) / CI (combination index) of gossypol with the named natural product: ZIKV PAN2016; for Fold of Enhancement (natural product with gossypol): (IC50 alone)/(IC50 in the mixture)—1; for CI (combination index) of gossypol with the named natural product: CI < 1 synergy
[11] = test system: ZIKV strain PRVABC59; experiment: Plaque reduction inhibition assay, ZIKV PRVABC59 in Vero E6 cells; type: cell-based; conditions: Zika virus, Vero C1008; plaque reduction, Vero E6 cells
[12] = in vitro; conditions: African green monkey
[13] = in vitro; conditions: African green monkey; remark: listed apart in the source
[14] = biological target: ZIKV full-length E protein (Zika virus, UniProt A0A024B7W1); type: binding; conditions: ELISA
[15] = test system: ZIKV rhesus macaque strain MR 766; experiment: Plaque reduction inhibition assay, ZIKV MR 766 in Vero E6 cells; type: cell-based; conditions: Zika virus, Vero C1008, in Macaca mulatta; plaque reduction, Vero E6 cells; read-out: IC50 MR 766
[16] = test system: ZIKV strain PAN2015; experiment: Plaque reduction inhibition assay, ZIKV PAN2015 in Vero E6 cells; type: cell-based; conditions: Zika virus, Vero C1008
[17] = test system: DENV-3-V1043; experiment: Plaque reduction inhibition assay, DENV-3 in LLC-MK2 cells; type: cell-based; conditions: Dengue virus, DENV3
[18] = test system: DENV-1-V1792; experiment: Plaque reduction inhibition assay, DENV-1 in LLC-MK2 cells; type: cell-based; conditions: Dengue virus, DENV1
[19] = test system: Vero E6 cells
[20] = test system: ZIKV strain R103451; experiment: Plaque reduction inhibition assay, ZIKV R103451 in Vero E6 cells; type: cell-based; conditions: Zika virus, Vero C1008; plaque reduction, Vero E6 cells; read-out: IC50 R103451
[21] = test system: DENV-2-V594; experiment: Plaque reduction inhibition assay, DENV-2 in LLC-MK2 cells; type: cell-based; conditions: Dengue virus, DENV2
[22] = test system: Vero E6 cells; experiment: Combinatorial cytotoxicity of gossypol with other natural products, CCK8; conditions: Vero E6, (CC50 alone)/(CC50 in the mixture)—1
[23] = in vitro; conditions: rhesus monkey
[24] = test system: DENV-4-PR 06-65-740; experiment: Plaque reduction inhibition assay, DENV-4 in LLC-MK2 cells; type: cell-based; conditions: Dengue virus, DENV4
[25] = test system: ZIKV (PAN2016); experiment: Time-of-addition experiment, ZIKV PAN2016 in Vero E6 cells; type: cell-based, Zika virus (ZIKV); conditions: for inhibition at 30 µM: Zika virus
[26] = Vero C1008, 1 h, read-out: inhibition of ZIKV infection, step d: cotreatment at 37 °C

T1 sequence (A0A024B7W1 588-699): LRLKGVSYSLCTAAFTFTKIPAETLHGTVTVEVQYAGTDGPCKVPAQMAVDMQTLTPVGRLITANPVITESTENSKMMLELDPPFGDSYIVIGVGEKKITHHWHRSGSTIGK
Sequence of ZIKV full-length E protein (A0A024B7W1 291-794): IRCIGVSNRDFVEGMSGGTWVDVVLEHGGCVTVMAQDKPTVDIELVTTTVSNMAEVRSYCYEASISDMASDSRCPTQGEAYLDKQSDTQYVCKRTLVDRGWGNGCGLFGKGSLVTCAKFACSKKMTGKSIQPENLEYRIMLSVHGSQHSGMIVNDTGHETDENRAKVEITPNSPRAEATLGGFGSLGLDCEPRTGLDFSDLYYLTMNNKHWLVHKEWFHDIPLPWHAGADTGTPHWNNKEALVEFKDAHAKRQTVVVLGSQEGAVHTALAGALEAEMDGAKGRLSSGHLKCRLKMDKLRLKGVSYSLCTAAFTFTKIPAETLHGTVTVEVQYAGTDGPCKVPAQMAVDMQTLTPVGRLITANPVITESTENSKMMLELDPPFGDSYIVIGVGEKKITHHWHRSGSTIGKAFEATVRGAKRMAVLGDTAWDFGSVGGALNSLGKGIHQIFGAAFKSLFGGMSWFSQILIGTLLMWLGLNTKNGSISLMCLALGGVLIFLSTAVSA

Row | SMILES | IC50 [1] [µM] | binding to ZIKV EDIII protein (in words) ([2]; ELISA) | IC50 [3] [µM] | IC50 [4] [µM] | IC50 [5] [µM] | IC50 [6] [µM] | IC50 [7] [µM] | IC50 [8] [µM] | IC50 [9] [µM] | IC50 [10] [µM] | IC50 [11] [µM] | CC50 at 3 days [12] [µM] | CC50 at 3 days [13] [µM] | binding to ZIKV full-length E protein (in words) [14] | IC50 [15] [µM] | IC50 [16] [µM] | IC90 [3] [µM] | Fold of Enhancement (natural product with gossypol) [5] | CI (combination index) of gossypol with the named natural product [5] | IC50 [17] [µM] | also measured
1 | CC(C)C[C@H](NC(=O)[C@H](Cc1ccccc1)NC(=O)c1cnccn1)B(O)O [Bortezomib, bortezomib, reference compound] | 9.62 ± 0.59 | did not bind | 9.75 ± 0.03 | 9.35 ± 0.23 | 12.17 ± 0.07 | 8.94 ± 0.1 | 9.7 ± 0.76 | 31 ± 0.71 | 7.67 ± 0.31 | 10.65 ± 0.01 | 11.7 ± 0.82 | 17.77 ± 0.17 | 17 ± 0.2 | did not bind | 9.51 ± 0.26 | 9.88 ± 0.12 |  |  |  |  | 
2 | C[C@H]1[C@H]2CC[C@H]3[C@@H]4CC=C5C[C@@H](N(C)C)CC[C@]5(C)[C@H]4CC[C@]23CN1C [Conessine, conessine] | 9.65 ± 0.58 |  | 9.75 ± 0.26 | 10.2 ± 0.41 | 9.4 ± 0.21 | 7.18 ± 0.13 | 10.1 ± 0.45 | 8.11 ± 0.37 | 10.94 ± 0.06 | 10 ± 0.25 | 9.08 ± 0.33 | 314.6 ± 2.32 | 323.71 ± 0.25 | did not bind | 7.44 ± 0.11 | 7.98 ± 0.29 | ~31.8 | 6.29 | 0.28 | 7.41 ± 0.04 | binding to ZIKV EDIII protein (in words) [2]: did not bind; IC50 [18]: 7.09 ± 0.08 µM; cytotoxicity in Vero E6 cells observed under a microscope [19]: no obvious cytotoxicity; Fold of Enhancement (natural product with gossypol) [7]: 1.13; CI (combination index) of gossypol with the named natural product [7]: 0.85; Fold of Enhancement (natural product with gossypol) [10]: 3.44; CI (combination index) of gossypol with the named natural product [10]: 0.44; IC50 [20]: 11.6 ± 0.33 µM; IC50 [21]: 6.61 ± 0.6 µM; Fold of Enhancement of cytotoxicity (natural product with gossypol) [22]: ~5.78; CC50 at 3 days [23]: 303 ± 13.4 µM; IC50 [24]: 7.27 ± 0.31 µM; inhibition at 30 µM [25, 26]: 80 to 96%; inhibition at 30 µM ([25]; Vero C1008, 1 h, read-out: inhibition of ZIKV infection, step e: penetration (membrane fusion)): 80 to 96%; inhibition at 30 µM ([25]; Vero C1008, 1 h, read-out: inhibition of ZIKV infection, step f: postentry stage): 80 to 96%; inhibition of ZIKV infection, step c: cotreatment at 4 °C (attachment) ([25]; cells, ZIKV and natural product 4 °C 1 h, gossypol 15 µM, curcumin 30 µM, digitonin 7.5 µM, conessine 30 µM): very low to no effect; inhibition of ZIKV infection, step a: pretreatment of ZIKV ([25]; natural product with ZIKV 37 °C 1 h before cells, gossypol 15 µM, curcumin 30 µM, digitonin 7.5 µM, conessine 30 µM): very low to no effect
3 | COc1cc(/C=C/C(=O)CC(=O)/C=C/c2ccc(O)c(OC)c2)ccc1O [Curcumin, curcumin] | 16.6 ± 0.34 | much lower binding affinity | 13.7 ± 0.72 | 13.6 ± 0.31 | 12.46 ± 0.05 | 14 ± 0.15 | 17.05 ± 0.08 | 10.8 ± 0.73 | 5.62 ± 0.52 | 13.2 ± 0.81 | 12.8 ± 0.35 | 53.1 ± 1.83 | 52.86 ± 0.52 | much lower binding affinity | 11.4 ± 0.29 | 13.7 ± 0.37 | ~47.7 | 5.46 | 0.30 | 2.09 ± 0.12 | IC50 [18]: 9.37 ± 0.47 µM; cytotoxicity in Vero E6 cells observed under a microscope [19]: no obvious cytotoxicity; Fold of Enhancement (natural product with gossypol) [7]: 2.84; CI (combination index) of gossypol with the named natural product [7]: 0.49; Fold of Enhancement (natural product with gossypol) [10]: 2.60; CI (combination index) of gossypol with the named natural product [10]: 0.52; IC50 [20]: 11.2 ± 0.37 µM; IC50 [21]: 3.07 ± 0.07 µM; Fold of Enhancement of cytotoxicity (natural product with gossypol) [22]: 0.28; Fold of Enhancement of cytotoxicity (natural product with gossypol) ([22]; listed as curcumin): not enhanced; CC50 at 3 days [23]: 59.4 ± 1.18 µM; IC50 [24]: 4.83 ± 0.24 µM; inhibition at 30 µM ([25]; Vero C1008, 1 h, read-out: inhibition of ZIKV infection, step c: cotreatment at 4 °C (attachment)): 75 to 100%; inhibition at 30 µM [25, 26]: 75 to 100%; inhibition at 30 µM ([25]; Vero C1008, read-out: inhibition of ZIKV infection, step a: pretreatment of ZIKV): 75 to 100%; inhibition of ZIKV infection, step e: penetration (membrane fusion) ([25]; cells with ZIKV 4 °C 1 h, then natural product 37 °C 1 h, gossypol 15 µM, curcumin 30 µM, digitonin 7.5 µM, conessine 30 µM): low to no impact; inhibition of ZIKV infection, step f: postentry stage ([25]; cells with ZIKV 37 °C 1 h, then natural product 37 °C 1 h, gossypol 15 µM, curcumin 30 µM, digitonin 7.5 µM, conessine 30 µM): low to no impact; inhibition of ZIKV infection, step b: pretreatment of cells ([25]; cells with natural product 37 °C 1 h before ZIKV, gossypol 15 µM, curcumin 30 µM, digitonin 7.5 µM, conessine 30 µM): low to no impact
